Measured values published in patent US20260256792A1, “TREATMENT OF CHRONIC SPONTANEOUS URTICARIA BY ADMINISTERING (R)-2-[3-[4-AMINO-3-(2-FLUORO-4-PHENOXY-PHENYL)PYRAZOLO[3,4-D]PYRIMIDIN-1-YL]PIPERIDINE-1-CARBONYL]-4-METHYL-4-[4-(OXETAN-3-YL)PIPERAZIN-1-YL]PENT-2-ENENITRILE” (priority 2023, published 2026).

Test system: moderate-to-severe chronic spontaneous urticaria (CSU)
Experiment: Phase 2 CSU study: urticaria activity score over 7 days (UAS7)
Type: in vivo, human
Conditions: Omalizumab-naïve
Source text: The study comprises a 12 week, randomized, double-blind, placebo-controlled, multi-center, dose-ranging efficacy and safety phase, followed by a 40 week open label extension (OLE) phase (see FIG. 1). The study consists of three phases and an optional OLE phase. […] Clinically, CSU is characterized by the spontaneous and recurrent appearance of pruritic hives. The proposed primary endpoints were the UAS7 at Week 12 in EU and EU reference countries and the ISS7 in the US. Regardless of where a participant was from, all assessments were the same. The UAS7 score is a composite score containing both the HSS7 and the ISS7. This allowed a global assessment of the two key components of urticaria: hives and itch. […] The UAS is a validated PRO measure. […] The daily UAS scores range from 0 to 6 point/day. […] Patients were to complete the UAS using the e-diary. […] The following secondary endpoints were to be analyzed using the same approach as for the primary endpoint: • Change from baseline in UAS7 at Week 4 • Change from baseline in UAS7 at Week 12 (for US and US reference countries) • Change from baseline in ISS7 at Week 12 (except US and US reference countries) • Change from baseline in HSS7 at Week 12 The following responder secondary endpoints were to be analyzed using the Cochran-Mantel-Haenszel test adjusted by region: • Proportion of participants with UAS7<6 at Week 12 • Proportion of participants with UAS7=0 at Week 12 Participants who received selected prohibited medications and/or rescue medications were to be considered as non-responders for time points after the medication usage. For other participants, all available data including those collected during the off-treatment period were to be used to determine the responder/non-responder status. Missing data were to be considered as non-responders.

SMILES: CC(C)(C=C(C#N)C(=O)N1CCC[C@@H](n2nc(-c3ccc(Oc4ccccc4)cc3F)c3c(N)ncnc32)C1)N1CCN(C2COC2)CC1 [rilzabrutinib, (R)-2-[3-[4-amino-3-(2-fluoro-4-phenoxy-phenyl)pyrazolo[3,4-d]pyrimidin-1-yl]piperidine-1-carbonyl]-4-methyl-4-[4-(oxetan-3-yl)piperazin-1-yl]pent-2-enenitrile]
- RRD (%) for rilzabrutinib vs. placebo, UAS7 = 0 (400 mg BID, Week 6): 7.6 %
- RRD (%) for rilzabrutinib vs. placebo, UAS7 ≤6 (400 mg BID, Week 6): 8.8 %
- Responder n (%), UAS7 = 0 (400 mg BID, Week 6): 4 (11.4) n (%)
- Responder n (%), UAS7 ≤6 (400 mg BID, Week 6): 9 (25.7) n (%)
- Imputed non-responder n (%), UAS7 = 0 (400 mg BID, Week 7): 2 (5.7) n (%)
- Imputed non-responder n (%), UAS7 ≤6 (400 mg BID, Week 7): 2 (5.7) n (%)
- Non-responder n (%), UAS7 = 0 (400 mg BID, Week 7): 31 (88.6) n (%)
- Non-responder n (%), UAS7 ≤6 (400 mg BID, Week 7): 26 (74.3) n (%)
- OR for rilzabrutinib vs. placebo, UAS7 = 0 (400 mg BID, Week 7): 4.254
- OR for rilzabrutinib vs. placebo, UAS7 ≤6 (400 mg BID, Week 7): 2.622
- RRD (%) for rilzabrutinib vs. placebo, UAS7 = 0 (400 mg BID, Week 7): 8.1 %
- RRD (%) for rilzabrutinib vs. placebo, UAS7 ≤6 (400 mg BID, Week 7): 13.6 %
- Responder n (%), UAS7 = 0 (400 mg BID, Week 7): 4 (11.4) n (%)
- Responder n (%), UAS7 ≤6 (400 mg BID, Week 7): 9 (25.7) n (%)
- Imputed non-responder n (%), UAS7 = 0 (400 mg BID, Week 8): 3 (8.6) n (%)
- Imputed non-responder n (%), UAS7 ≤6 (400 mg BID, Week 8): 3 (8.6) n (%)
- Non-responder n (%), UAS7 = 0 (400 mg BID, Week 8): 29 (82.9) n (%)
- Non-responder n (%), UAS7 ≤6 (400 mg BID, Week 8): 22 (62.9) n (%)
- OR for rilzabrutinib vs. placebo, UAS7 = 0 (400 mg BID, Week 8): 3.154
- OR for rilzabrutinib vs. placebo, UAS7 ≤6 (400 mg BID, Week 8): 2.745
- RRD (%) for rilzabrutinib vs. placebo, UAS7 = 0 (400 mg BID, Week 8): 10.7 %
- RRD (%) for rilzabrutinib vs. placebo, UAS7 ≤6 (400 mg BID, Week 8): 18.5 %
- Responder n (%), UAS7 = 0 (400 mg BID, Week 8): 6 (17.1) n (%)
- Responder n (%), UAS7 ≤6 (400 mg BID, Week 8): 13 (37.1) n (%)
- Imputed non-responder n (%), UAS7 = 0 (400 mg BID, Week 9): 7 (20.0) n (%)
- Imputed non-responder n (%), UAS7 ≤6 (400 mg BID, Week 9): 7 (20.0) n (%)
- Non-responder n (%), UAS7 = 0 (400 mg BID, Week 9): 29 (82.9) n (%)
- Non-responder n (%), UAS7 ≤6 (400 mg BID, Week 9): 25 (71.4) n (%)
- OR for rilzabrutinib vs. placebo, UAS7 = 0 (400 mg BID, Week 9): 2.249
- OR for rilzabrutinib vs. placebo, UAS7 ≤6 (400 mg BID, Week 9): 2.797
- RRD (%) for rilzabrutinib vs. placebo, UAS7 = 0 (400 mg BID, Week 9): 8.4 %
- RRD (%) for rilzabrutinib vs. placebo, UAS7 ≤6 (400 mg BID, Week 9): 15.6 %
- Responder n (%), UAS7 = 0 (400 mg BID, Week 9): 6 (17.1) n (%)
- Responder n (%), UAS7 ≤6 (400 mg BID, Week 9): 10 (28.6) n (%)
- Imputed non-responder n (%), UAS7 = 0 (400 mg BID, Week 10): 8 (22.9) n (%)
- Imputed non-responder n (%), UAS7 ≤6 (400 mg BID, Week 10): 8 (22.9) n (%)
- Non-responder n (%), UAS7 = 0 (400 mg BID, Week 10): 27 (77.1) n (%)
- Non-responder n (%), UAS7 ≤6 (400 mg BID, Week 10): 26 (74.3) n (%)
- OR for rilzabrutinib vs. placebo, UAS7 = 0 (400 mg BID, Week 10): 2.159
- OR for rilzabrutinib vs. placebo, UAS7 ≤6 (400 mg BID, Week 10): 1.923
- RRD (%) for rilzabrutinib vs. placebo, UAS7 = 0 (400 mg BID, Week 10): 10.6 %
- RRD (%) for rilzabrutinib vs. placebo, UAS7 ≤6 (400 mg BID, Week 10): 9.9 %
- Responder n (%), UAS7 = 0 (400 mg BID, Week 10): 8 (22.9) n (%)
- Responder n (%), UAS7 ≤6 (400 mg BID, Week 10): 9 (25.7) n (%)
- Imputed non-responder n (%), UAS7 = 0 (400 mg BID, Week 11): 7 (20.0) n (%)
- Imputed non-responder n (%), UAS7 ≤6 (400 mg BID, Week 11): 7 (20.0) n (%)
- Non-responder n (%), UAS7 = 0 (400 mg BID, Week 11): 30 (85.7) n (%)
- Non-responder n (%), UAS7 ≤6 (400 mg BID, Week 11): 25 (71.4) n (%)
- OR for rilzabrutinib vs. placebo, UAS7 = 0 (400 mg BID, Week 11): 2.551
- OR for rilzabrutinib vs. placebo, UAS7 ≤6 (400 mg BID, Week 11): 1.853
- RRD (%) for rilzabrutinib vs. placebo, UAS7 = 0 (400 mg BID, Week 11): 7.4 %
- Responder n (%), UAS7 = 0 (400 mg BID, Week 11): 5 (14.3) n (%)
- Responder n (%), UAS7 ≤6 (400 mg BID, Week 11): 10 (28.6) n (%)
- Imputed non-responder n (%), UAS7 = 0 (400 mg BID, Week 12): 11 (31.4) n (%)
- Imputed non-responder n (%), UAS7 ≤6 (400 mg BID, Week 12): 11 (31.4) n (%)
- Non-responder n (%), UAS7 = 0 (400 mg BID, Week 12): 30 (85.7) n (%)
- Non-responder n (%), UAS7 ≤6 (400 mg BID, Week 12): 28 (80.0) n (%)
- OR for rilzabrutinib vs. placebo, UAS7 = 0 (400 mg BID, Week 12): 1.258
- OR for rilzabrutinib vs. placebo, UAS7 ≤6 (400 mg BID, Week 12): 1.904
- RRD (%) for rilzabrutinib vs. placebo, UAS7 = 0 (400 mg BID, Week 12): 2.6 %
- RRD (%) for rilzabrutinib vs. placebo, UAS7 ≤6 (400 mg BID, Week 12): 7.9 %
- Responder n (%), UAS7 = 0 (400 mg BID, Week 12): 5 (14.3) n (%)
- Responder n (%), UAS7 ≤6 (400 mg BID, Week 12): 7 (20.0) n (%)
- Imputed non-responder n (%), UAS7 = 0 (400 mg QPM, Week 1): 0 n (%)
- Imputed non-responder n (%), UAS7 ≤6 (400 mg QPM, Week 1): 0 n (%)
- Non-responder n (%), UAS7 = 0 (400 mg QPM, Week 1): 37 (100) n (%)
